As a reminder, the pIC50 is the negative decadic logarithm of the IC50, by convention in mol/L. By pKd is commonly meant −log10 of the Kd, conventionally taken in molar units. A lower pKd goes with a high Kd.

Molecules are shown by their SMILES. pIC50, pKd: −log10 of the molar value. The source made the active and inactive calls. The rule behind the calls is not given here.

T2 sequence (Q93009 whole entry): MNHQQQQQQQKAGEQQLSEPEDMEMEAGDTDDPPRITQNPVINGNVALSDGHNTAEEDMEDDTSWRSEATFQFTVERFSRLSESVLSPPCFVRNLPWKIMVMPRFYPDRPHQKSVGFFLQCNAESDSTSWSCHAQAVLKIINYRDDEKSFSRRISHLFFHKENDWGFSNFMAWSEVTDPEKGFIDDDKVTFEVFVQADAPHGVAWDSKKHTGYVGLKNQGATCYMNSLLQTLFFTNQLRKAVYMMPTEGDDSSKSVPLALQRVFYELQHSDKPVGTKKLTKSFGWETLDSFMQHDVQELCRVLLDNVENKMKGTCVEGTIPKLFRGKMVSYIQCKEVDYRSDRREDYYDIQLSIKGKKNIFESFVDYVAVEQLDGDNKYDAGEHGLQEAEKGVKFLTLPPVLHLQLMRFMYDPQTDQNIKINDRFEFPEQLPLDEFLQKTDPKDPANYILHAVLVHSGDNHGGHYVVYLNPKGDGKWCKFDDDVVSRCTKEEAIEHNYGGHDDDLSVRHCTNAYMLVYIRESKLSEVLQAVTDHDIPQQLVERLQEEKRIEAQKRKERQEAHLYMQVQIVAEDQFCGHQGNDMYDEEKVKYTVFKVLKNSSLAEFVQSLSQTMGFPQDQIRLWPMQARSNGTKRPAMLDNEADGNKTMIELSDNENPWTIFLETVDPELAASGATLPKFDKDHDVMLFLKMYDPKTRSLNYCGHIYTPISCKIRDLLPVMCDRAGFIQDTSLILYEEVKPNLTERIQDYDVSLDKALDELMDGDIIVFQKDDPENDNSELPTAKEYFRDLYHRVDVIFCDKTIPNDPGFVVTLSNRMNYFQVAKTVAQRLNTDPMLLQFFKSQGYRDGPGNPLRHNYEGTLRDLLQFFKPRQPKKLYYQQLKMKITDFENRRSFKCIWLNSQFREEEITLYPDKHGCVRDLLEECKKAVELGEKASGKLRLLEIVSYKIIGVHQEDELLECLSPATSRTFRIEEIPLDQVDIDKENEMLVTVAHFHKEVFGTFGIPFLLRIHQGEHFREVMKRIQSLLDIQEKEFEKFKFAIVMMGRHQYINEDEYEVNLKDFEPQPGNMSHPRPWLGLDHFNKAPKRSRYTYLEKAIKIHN

One test deals with T1, Ubiquitin carboxyl-terminal hydrolase 8 (Homo sapiens, UniProt P40818).
T1 sequence (P40818 whole entry): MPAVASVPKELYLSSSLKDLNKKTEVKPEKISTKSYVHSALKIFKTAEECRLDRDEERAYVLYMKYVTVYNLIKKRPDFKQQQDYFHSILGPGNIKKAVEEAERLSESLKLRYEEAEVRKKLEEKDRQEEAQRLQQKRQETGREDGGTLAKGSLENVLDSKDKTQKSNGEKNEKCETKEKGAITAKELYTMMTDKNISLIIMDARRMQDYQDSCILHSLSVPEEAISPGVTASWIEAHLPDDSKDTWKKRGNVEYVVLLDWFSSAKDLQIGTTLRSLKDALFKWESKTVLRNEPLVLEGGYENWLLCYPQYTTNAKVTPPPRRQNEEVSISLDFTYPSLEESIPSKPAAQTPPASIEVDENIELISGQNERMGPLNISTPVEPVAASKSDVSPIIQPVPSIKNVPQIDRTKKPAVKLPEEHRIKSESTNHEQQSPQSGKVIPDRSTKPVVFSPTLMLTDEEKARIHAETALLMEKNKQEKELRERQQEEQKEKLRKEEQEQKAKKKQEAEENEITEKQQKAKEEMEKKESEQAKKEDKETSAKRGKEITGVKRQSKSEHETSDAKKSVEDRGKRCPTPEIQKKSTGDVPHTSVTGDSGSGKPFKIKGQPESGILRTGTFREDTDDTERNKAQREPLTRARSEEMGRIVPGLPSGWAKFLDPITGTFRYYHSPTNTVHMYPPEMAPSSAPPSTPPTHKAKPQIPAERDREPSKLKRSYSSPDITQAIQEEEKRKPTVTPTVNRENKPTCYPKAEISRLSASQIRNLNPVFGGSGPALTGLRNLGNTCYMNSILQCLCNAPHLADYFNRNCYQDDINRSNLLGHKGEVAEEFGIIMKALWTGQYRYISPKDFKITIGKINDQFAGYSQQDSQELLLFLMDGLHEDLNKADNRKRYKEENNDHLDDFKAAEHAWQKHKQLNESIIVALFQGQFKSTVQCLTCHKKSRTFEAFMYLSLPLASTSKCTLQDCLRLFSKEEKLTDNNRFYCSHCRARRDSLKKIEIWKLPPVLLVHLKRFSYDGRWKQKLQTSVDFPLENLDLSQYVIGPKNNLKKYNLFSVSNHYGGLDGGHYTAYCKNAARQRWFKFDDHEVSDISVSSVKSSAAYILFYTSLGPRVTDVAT
In words: Inhibition of human full length USP8 overexpressed in baculovirus-infected insect cells using ubiquitin-C-terminal 7-amido-4-methylcoumarin as substrate by fluorescence spectroscopy.
Settings: not given
In turn, `N#Cc1nc2c(nc1C#N)-c1ccccc1/C2=N\OCc1ccccc1` had a pIC50 of 6.07.
As for `C=CCO/N=C1\c2ccccc2-c2nc(C#N)c(C#N)nc21`, the pIC50 was 6.25.
In the case of `N#Cc1cc2c(cc1C#N)-c1ccccc1C2=O`, the negative-log IC50 (pIC50) was 6.54.

For another test, the target named is NAD(P)H dehydrogenase [quinone] 1 (Homo sapiens) (UniProt P15559). In words: Substrate activity at NQO1 (unknown origin) assessed as reduction in NADPH level measured per umol of NQO1 at 20 uM in presence of NADPH by absorbance based analysis.
Chain of NAD(P)H dehydrogenase [quinone] 1 (Homo sapiens) (P15559 whole entry): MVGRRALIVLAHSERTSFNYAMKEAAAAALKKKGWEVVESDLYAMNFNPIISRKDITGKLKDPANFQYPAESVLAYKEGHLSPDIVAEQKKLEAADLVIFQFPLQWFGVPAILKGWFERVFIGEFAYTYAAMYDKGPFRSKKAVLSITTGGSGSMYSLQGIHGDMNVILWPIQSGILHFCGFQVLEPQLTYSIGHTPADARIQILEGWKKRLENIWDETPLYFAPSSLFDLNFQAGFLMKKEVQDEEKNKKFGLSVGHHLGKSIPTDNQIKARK
Settings: not given
Consider `CCO/N=C1/c2ccccc2-c2nc(C#N)c(C#N)nc21`, for which the Activity was determined as 1300 µmol/min.

A further test has as its target T2, Ubiquitin carboxyl-terminal hydrolase 7 (Homo sapiens, UniProt Q93009). The experiment in a line: Inhibition of human full length USP7 overexpressed in baculovirus-infected insect cells using ubiquitin-C-terminal 7-amido-4-methylcoumarin as substrate by fluorescence spectroscopy.
Settings: not given
For `N#Cc1cc2c(cc1C#N)-c1ccccc1C2=O`, the pIC50 is 5.46.

For the next test, the system named is MCF7. The experiment in a line: Antiproliferative activity against human MCF7 cells assessed as reduction in colony formation at 3 uM incubated for 7 days by crystal violet staining based colony formation assay. Type of test: functional, cell-based. The conditions noted are these: time 7.0 day.
For `CCO/N=C1/c2ccccc2-c2nc(C#N)c(C#N)nc21`, the outcome was Active.

A further test addresses T1, Ubiquitin carboxyl-terminal hydrolase 8. In words: Binding affinity to N-terminal His6-tagged USP8 catalytic domain (734 to 1110 residues) (unknown origin) expressed in Escherichia coli BL21 (DE3) cells by surface plasmon resonance method.
Settings: not given
For orientation: SPR reads the build-up and loss of mass on a sensor chip optically.
As to `COc1c(O)cc(O)c2c(=O)cc(-c3ccc(N4CCCNCC4)cc3)oc12`, the pKd is 4.36.

The next test shares this target. In words: Inhibition of N-terminal His6-tagged USP8 (unknown origin) expressed in Escherichia coli BL21 (DE3) cells using ubiquitin-rhodamine -110 as substrate incubated for 15 mins followed by substrate addition measured after 1 hrs by ubiquitin-rhodamine-110 based fluorometric assay.
Settings: not given
On to `COc1ccc(N2CCN(C(=S)Nc3ccc([N+](=O)[O-])cc3)CC2)c(N)c1`, for which the pIC50 was 5.59.

A further test shares this target. In words: Inhibition of N-terminal His6-tagged USP8 (unknown origin) catalytic domain (734 to 1110 residues) expressed in Escherichia coli BL21 (DE3) cells assessed as deubiquitinating activity using ubiquitin-rhodamine -110 as substrate incubated for 30 mins followed by substrate addition measured after 30 mins by ubiquitin-rhodamine-110 based fluorometric assay.
Settings: not given
Turning to `COc1c(O)cc(O)c2c(=O)cc(-c3ccc(N4CCN(C=O)CC4)cc3)oc12`, the pIC50 is 5.66.
`CCN1CCN(c2ccc(-c3cc(=O)c4c(O)cc(O)c(Oc5c(C)n[nH]c5C)c4o3)cc2)CC1`: the pIC50 is 4.81.
Regarding `CC(C)Oc1c(O)cc(O)c2c(=O)cc(-c3ccc(N4CCCNCC4)cc3)oc12`, the pIC50 was 4.61.
The same measure, in the same setting: next, `COc1c(O)cc(O)c2c(=O)cc(-c3ccc(N4CCCC4)cc3)oc12`: 4.79; `Cc1n[nH]c(C)c1Oc1c(O)cc(O)c2c(=O)cc(-c3ccc(N4CCN(c5ccccc5)CC4)cc3)oc12`: 5.46; `Cc1n[nH]c(C)c1Oc1c(O)cc(O)c2c(=O)cc(-c3ccc(N4CCN(C(C)C)CC4)cc3)oc12`: 4.79.
Consider `COc1c(O)cc(O)c2c(=O)cc(-c3ccc(N(CCO)CCO)cc3)oc12`, for which the pIC50 is 4.36.
On to `Cc1n[nH]c(C)c1Oc1c(O)cc(O)c2c(=O)cc(-c3ccc(N4CCN(CCO)CC4)cc3)oc12`, for which the pIC50 is 4.63.
As to `COc1c(O)cc(O)c2c(=O)cc(-c3ccc(N4CCOCC4)cc3)oc12`, the pIC50 was 4.74.
On the same count and under the same terms, next, `O=c1cc(-c2ccc(N3CCCNCC3)cc2)oc2c(OC3CCCCC3)c(O)cc(O)c12`: 4.79.
Turning to `Cc1n[nH]c(C)c1Oc1c(O)cc(O)c2c(=O)cc(-c3ccc(N4CCCNCC4)cc3)oc12`, the pIC50 was 4.75.
On the same count and under the same terms, next, `COc1c(O)cc(O)c2c(=O)cc(-c3ccc(N4CCN(CCO)CC4)cc3)oc12`: 4.34; `COc1c(O)cc(O)c2c(=O)cc(-c3ccc(N4CCC(O)CC4)cc3)oc12`: 4.44; `COc1c(O)cc(O)c2c(=O)cc(-c3ccc(N4CCCNCC4)cc3)oc12`: 4.50.
For the compound `Cc1n[nH]c(C)c1Oc1c(O)cc(O)c2c(=O)cc(-c3ccc(N4CCN(C(=O)c5ccco5)CC4)cc3)oc12`, the pIC50 is 5.29.
Take `COc1c(O)cc(O)c2c(=O)cc(-c3ccc(N4CCN(C)CC4)cc3)oc12`: the pIC50 is 4.78.

For the next test, the target named is T2, Ubiquitin carboxyl-terminal hydrolase 7. The experiment in a line: Inhibition of USP7 (unknown origin) […].
Settings: not given
As to `COc1ccc(N2CCN(C(=S)Nc3ccc([N+](=O)[O-])cc3)CC2)c(N)c1`, the pIC50 was 4.98.
